Where “and” joins values, the source holds several entries; their conditions need not be identical. Equal entries are not always repeated. Where two headings read alike, the source gives them in different places.
System: neurons in brain slices
Format: cell-based
Details: for NON-STROKE AVERAGE / surviving neurons, NON-STROKE: non-stroke brain slice; for NON-STROKE AVERAGE / STROKE AVG. / surviving neurons, NON-STROKE / surviving neurons, STROKE: 24 hrs exposure; for NON-STROKE AVERAGE / STROKE AVG.: average neuron count; for STROKE AVG. / surviving neurons, STROKE: stroke brain slice; for surviving neurons, NON-STROKE / surviving neurons, STROKE: single count; for neuroprotective properties: stroke and non-stroke brain slices, result in words
Source text: A negative and positive control experiments were also run for comparison. In the positive control, a known neuroprotective gene and reporter gene (i.e., a green fluorescent protein) were shot into the stroke and non-stroke brain slices. In the negative control, only the reporter gene (i.e., a green fluorescent protein) was shot into the stroke and non-stroke brain slices. […]
A negative and positive control experiments were also run for comparison as described above for Example 1. […]
Two sets of brain slices were transfected with a plasmid containing a reporter gene (e.g. a green fluorescent protein). […] One of the sets of brain slices was treated under conditions to simulate stroke, and the other brain slice was a non-stroke control. Survival of neurons in the brain slices, as indicated by expression of the reporter molecule, was examined by direct neuron counts after 24 hrs. exposure to the compound.

Compound | NON-STROKE AVERAGE (0.781 uM) | STROKE AVG. (0.781 uM) | NON-STROKE AVERAGE (1.562 uM) | STROKE AVG. (1.562 uM) | NON-STROKE AVERAGE (3.125 uM) | STROKE AVG. (3.125 uM) | NON-STROKE AVERAGE (6.25 uM) | STROKE AVG. (6.25 uM) | NON-STROKE AVERAGE (12.5 uM) | STROKE AVG. (12.5 uM) | NON-STROKE AVERAGE (25 uM) | STROKE AVG. (25 uM) | NON-STROKE AVERAGE (50 uM) | STROKE AVG. (50 uM) | NON-STROKE AVERAGE (100 uM) | STROKE AVG. (100 uM) | surviving neurons, STROKE (100 uM) | neuroprotective properties | further results
NC(C(=O)O)c1nnn[nH]1 (racemic) [(RS)-(Tetrazol-5-yl)glycine] | 25.6 | 13.2 | 28.8 | 17.2 | 50.4 | 28.2 | 94.8 | 58.8 | 65.2 | 56.6 | 78 | 53.2 | 68.8 | 89 | 73.6 | 79.6 | 95 neurons and 76 neurons and 87 neurons and 66 neurons and 74 neurons | exhibits neuroprotective properties | surviving neurons, NON-STROKE (12.5 uM): 71 neurons and 61 neurons and 75 neurons and 56 neurons and 63 neurons; surviving neurons, NON-STROKE (100 uM): 72 neurons and 87 neurons and 64 neurons and 62 neurons and 83 neurons
CC=C(C)C(=O)OC1CCC2(C)C3CCC4[C@]5(O)CC(O)[C@@]6(O)C(CN7CC(C)CCC7[C@@]6(C)O)[C@]5(O)C[C@@]42O[C@]13O (stereo partly drawn) [Cevadine, (Z)-4α,9-Epoxycevane-3β,4,12,14,16β,17,20-heptol 3-(2-methyl-2-butenoate)] | 26.25 | 9.5 | 33.2 | 9 | 25.6 | 6.4 | 27 | 8.6 | 64 | 38.5 | 93.6 | 126 | 118 | 86.6 | 73 | 70 | 53 neurons and 78 neurons and 77 neurons and 56 neurons and 86 neurons | exhibits neuroprotective properties | surviving neurons, STROKE (3.125 uM): 9 neurons and 5 neurons and 6 neurons and 7 neurons
COC1C(O)[C@H](O[C@H]2CC[C@]3(C)C4CC[C@]5(C)C(C6=CC(=O)OC6)CC[C@]5(O)C4CC[C@@H]3C2)OC(C)[C@@H]1O (stereo partly drawn) [Neriifolin, (3β,5β)-3-[(6-Deoxy-3-O-methyl-α-L-glucopyranosyl)oxyl]-14-hydroxycard-20(22)-enolide] | 35 | 6.4 | 30.4 | 10 | 48.2 | 5.8 | 61 | 19.8 | 29.75 | 36.25 | 60.2 | 43.4 | 32.2 | 17.6 | 15.6 | 10.6 |  | exhibits neuroprotective properties | surviving neurons, NON-STROKE (25 uM): 49 neurons and 66 neurons and 82 neurons and 42 neurons and 62 neurons
O=C1O[C@H]([C@@H](O)CO)C([O-])=C1O.[Na+] [Sodium Ascorbate, Sodium ascorbate, reference compound] |  |  |  |  |  |  |  |  |  |  | 12.5 | 0.5 | 10 | 2 | 2.5 |  |  | did not exhibit neuroprotective properties | NON-STROKE AVERAGE (0.3125 uM): 9.5; STROKE AVG. (0.3125 uM): 2.5; NON-STROKE AVERAGE (0.625 uM): 12.5; STROKE AVG. (0.625 uM): 0.5; NON-STROKE AVERAGE (1.25 uM): 10.5; STROKE AVG. (1.25 uM): 0.5; NON-STROKE AVERAGE (2.5 uM): 8; STROKE AVG. (2.5 uM): 0.5; NON-STROKE AVERAGE (5 uM): 19.5; STROKE AVG. (5 uM): 1; NON-STROKE AVERAGE (10 uM): 15.5; STROKE AVG. (10 uM): 2
